Measurements as given in patent US6794371B1, “Aminoalkylenephosphonates for treatment of bone disorders” (The Dow Chemical Company, priority 1999, dated 2004).

Test system: ovariectomized rats (bone mineral density)
Experiment: Ovariectomized rat osteoporosis model, bone mineral density by dual energy X-ray absorptiometry (DEXA) (Example 2)
Settings: 5 mg/kg
Experimental: Eleven week old Female Sprague-Dawley laboratory rats (75) were fed a commercial rat diet and were allowed to drink water ad libitum. They were housed in pairs in an air-conditioned environment, and were allowed to enjoy 14 hours of illumination per day. Ten rats were sham-operated and were used as “non-osteopenic” control rats. All of the other rats were ovariectomized at 12 weeks of age. All surgeries were done under injectable anesthesia. […] The remaining rats were given various phosphonate compounds in groups of ten.
The rats were given doses three times during the first week and once a week thereafter.
All other compounds were dosed at 5 mg/kg. In this study, bone mineral density was determined by dual energy X-ray absorptiometry (DEXA).

| SMILES | bone mineral density (BMD) over the study period, relative to OVX control group |
| --- | --- |
| O=P(O)(O)CN1Cc2cccc(n2)CN(CP(=O)(O)O)Cc2cccc(n2)C1 [BP2MP, N,N′-bis(methylenephosphonic acid)-2,11-diaza[3.3](2,6)pyridinophane] | look even better |
| O=P(O)(O)CN(Cc1ccccn1)CP(=O)(O)O [AMPDMP, N,N-bis(methylenephosphonic acid)-2-(aminomethyl)pyridine] | look even better |
